According to the supplement of paper PMC10307832:

Legend:
Assay in all cases: relative viability (nuclei count vs DMSO), 5 days (fraction); higher = more cells survive
[1] = compound: COc1ncc(-c2ccc3nccc(-c4ccnnc4)c3c2)cc1NS(=O)(=O)c1ccc(F)cc1F [Omipalisib] + O=C(CCCCCCC(=O)Nc1ccccc1)NO [Vorinostat] (partner 1 µM)
Procedure, shortened: (§1)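 Each reported value is a median over duplicate plates. It expresses relative viability: treated-well nuclei count divided by vehicle-well nuclei count. Lung cancer cell lines in 1536-well plates were dosed by pin tool a day after seeding, alone with one drug or with a fixed anchor-drug dose plus five library-drug doses (not always all listed) in √10 steps, and nuclei were counted after 5 days.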

[2] = compound: COc1ncc(-c2ccc3nccc(-c4ccnnc4)c3c2)cc1NS(=O)(=O)c1ccc(F)cc1F [Omipalisib] + CS(=O)(=O)CCNCc1ccc(-c2ccc3ncnc(Nc4ccc(OCc5cccc(F)c5)c(Cl)c4)c3c2)o1 [Lapatinib] (partner 2 µM)
Procedure, shortened: as §1

[3] = compound: COc1ncc(-c2ccc3nccc(-c4ccnnc4)c3c2)cc1NS(=O)(=O)c1ccc(F)cc1F [Omipalisib] + CS(=O)(=O)N1CCN(Cc2cc3nc(-c4cccc5[nH]ncc45)nc(N4CCOCC4)c3s2)CC1 [Pictilisib] (partner 1 µM)
Procedure, shortened: as §1

[4] = compound: COc1ncc(-c2ccc3nccc(-c4ccnnc4)c3c2)cc1NS(=O)(=O)c1ccc(F)cc1F [Omipalisib] + N=C(N)NC(=N)NCCc1ccccc1 [Phenformin] (partner 250 µM)
Procedure, shortened: as §1

[5] = compound: COc1ncc(-c2ccc3nccc(-c4ccnnc4)c3c2)cc1NS(=O)(=O)c1ccc(F)cc1F [Omipalisib] + CC(=O)c1c(C)c2cnc(Nc3ccc(N4CCNCC4)cn3)nc2n(C2CCCC2)c1=O [Palbociclib] (partner 0.5 µM)
Procedure, shortened: as §1

[6] = compound: COc1ncc(-c2ccc3nccc(-c4ccnnc4)c3c2)cc1NS(=O)(=O)c1ccc(F)cc1F [Omipalisib] + Cc1nc(NC(=O)N2CCC[C@H]2C(N)=O)sc1-c1ccnc(C(C)(C)C(F)(F)F)c1 [Alpelisib] (partner 2 µM)
Procedure, shortened: as §1

Cell Line	relative viability ([1]; first compound 0.0003 µM)	relative viability ([1]; first compound 0.003 µM)	relative viability ([1]; first compound 0.03 µM)	relative viability ([2]; first compound 0.0003 µM)	relative viability ([2]; first compound 0.003 µM)	relative viability ([2]; first compound 0.03 µM)	relative viability ([3]; first compound 0.0003 µM)	relative viability ([3]; first compound 0.003 µM)	relative viability ([3]; first compound 0.03 µM)	relative viability ([4]; first compound 0.0003 µM)	relative viability ([4]; first compound 0.003 µM)	relative viability ([4]; first compound 0.03 µM)	relative viability ([5]; first compound 0.0003 µM)	relative viability ([5]; first compound 0.003 µM)	relative viability ([5]; first compound 0.03 µM)	relative viability ([6]; first compound 0.0003 µM)	relative viability ([6]; first compound 0.003 µM)	relative viability ([6]; first compound 0.03 µM)
NCI-H2170	0.716	0.51	0.418	0.221	0.257	0.257	0.3	0.137	0.278	0.459	0.432	0.375	0.301	0.236	0.173	0.704	0.643	0.484
NCI-H23	0.541	0.297	0.234	0.911	0.862	0.501	0.45	0.373	0.401	0.773	0.635	0.576	0.391	0.239	0.211	0.596	0.444	0.381
SK-LU-1	0.758	0.561	0.535	0.89	0.724	0.493	0.685	0.504	0.511	0.47	0.299	0.273	0.387	0.329	0.306	0.937	0.838	0.642
NCI-H1437	0.948	0.75	0.448	0.795	0.55	0.308	0.436	0.308	0.319	0.334	0.249	0.333	0.363	0.307	0.218	0.92	0.707	0.45
NCI-H3122	0.752	0.713	0.399	1.03	1.05	0.786	0.538	0.472	0.475	0.371	0.459	0.314	0.168	0.153	0.144	0.742	0.63	0.489
NCI-H520	0.623	0.458	0.214	0.778	0.581	0.22	0.243	0.212	0.251	0.405	0.209	0.2	0.203	0.152	0.145	0.802	0.608	0.292
NCI-H1734	0.683	0.466	0.35	0.943	0.699	0.551	0.461	0.307	0.389	0.341	0.265	0.183	0.278	0.238	0.205	0.582	0.464	0.32
NCI-H1975	0.702	0.458	0.276	0.801	0.613	0.22	0.321	0.277	0.193	0.412	0.292	0.162	0.669	0.248	0.173	0.695	0.518	0.253
LU99A	0.441	0.353	0.228	0.908	0.71	0.346	0.303	0.242	0.265	0.802	0.695	0.578	0.396	0.24	0.183	0.492	0.439	0.277
NCI-H1793	0.649	0.438	0.231	0.614	0.425	0.214	0.348	0.344	0.293	0.372	0.22	0.188	0.243	0.215	0.15	0.577	0.435	0.292
NCI-H1355	0.646	0.396	0.232	0.942	0.665	0.54	0.499	0.295	0.297	0.433	0.351	0.277	0.358	0.239	0.198	0.716	0.55	0.336
NCI-H2023	0.356	0.454	0.161	0.684	0.374	0.179	0.204	0.181	0.179	0.379	0.275	0.164	0.383	0.213	0.0832	0.513	0.523	0.344
LOU-NH91	1.02	0.679	0.582	0.708	0.53	0.511	0.511	0.487	0.441	0.738	0.522	0.504	0.586	0.536	0.52	0.681	0.677	0.53
NCI-H838	0.678	0.639	0.557	0.942	0.683	0.31	0.422	0.393	0.313	0.566	0.397	0.195	0.221	0.184	0.146	0.935	0.802	0.357
A-427	0.885	0.877	0.867	1.08	0.897	1.05	0.729	0.697	0.744	0.382	0.224	0.337	0.501	0.49	0.455	1.1	0.993	1.03
NCI-H650	0.325	0.337	0.186	0.816	0.759	0.499	0.867	0.762	0.631	0.443	0.401	0.332	0.297	0.275	0.222	1.03	0.741	0.487
NCI-H2347	0.638	0.475	0.368	0.855	0.902	0.81	0.682	0.612	0.449	0.329	0.226	0.244	0.393	0.432	0.4	1.05	1.05	0.69
EMC-BAC-2	0.382	0.317	0.298	0.726	0.611	0.608	0.514	0.465	0.432	0.476	0.368	0.334	0.441	0.38	0.311	0.759	0.663	0.505
EKVX	0.709	0.588	0.256	0.198	0.17	0.131	0.45	0.434	0.393	0.228	0.254	0.15	0.301	0.326	0.182	0.85	0.72	0.397
NCI-H1651	0.517	0.457	0.437	0.538	0.65	0.44	0.545	0.512	0.458	0.274	0.307	0.214	0.464	0.401	0.294	0.915	0.847	0.69
LCLC-97TM1	0.728	0.378	0.179	0.976	0.323	0.223	0.181	0.15	0.166	0.38	0.338	0.159	0.202	0.14	0.0751	0.238	0.227	0.145
SW 1573	0.236	0.456	0.315	0.905	0.786	0.638	0.495	0.388	0.341	0.238	0.227	0.169	0.335	0.325	0.191	0.642	0.511	0.43
SK-MES-1	1.02	0.739	0.526	0.447	0.308	0.364	0.423	0.318	0.347	0.66	0.618	0.428	0.273	0.271	0.261	0.847	0.66	0.458
NCI-H2009	0.674	0.689	0.573	0.997	0.943	0.581	0.752	0.797	0.52	0.511	0.487	0.316	0.204	0.176	0.179	1.16	1.12	0.994
COR-L23	0.404	0.377	0.242	1.01	0.893	0.517	0.723	0.709	0.449	0.461	0.508	0.406	0.286	0.246	0.212	0.879	0.801	0.431
201T	1.01	0.855	0.453	1.02	0.935	0.936	0.706	0.668	0.554	0.47	0.421	0.338	0.325	0.343	0.27	1.02	0.999	0.735
NCI-H2228	0.75	0.498	0.162	0.993	0.697	0.291	0.41	0.265	0.407	0.258	0.142	0.122	0.839	0.47	0.234	0.764	0.657	0.251
NCI-H322M	0.922	0.765	0.622	0.53	0.553	0.415	0.467	0.577	0.313	0.739	0.57	0.453	0.427	0.446	0.449	1.07	0.77	0.452
HARA	0.453	0.459	0.201	0.613	0.659	0.326	0.464	0.661	0.354	0.539	0.334	0.332	0.267	0.181	0.169	0.769	0.704	0.434
